Measurements reported in article PMC9457798, “In Vivo Anticancer Evaluation of 6b, a Non-Covalent Imidazo[1,2-a]quinoxaline-Based Epidermal Growth Factor Receptor Inhibitor against Human Xenograft Tumor in Nude Mice” (Molecules, 2022).
Blank lines part the entries; values can stand above or below the molecule they belong to.

Assays:
[1] = test system: PI3K/AKT pathway (AKT, P-AKT, PI3K, PTEN); assay: Western blot (immunoblotting) of tumor tissue from A549 xenograft mice; format: in vivo, nude mice; settings: for PTEN protein level in tumors: gefitinib 30 mg/kg, 6b both doses, vs control untreated mice
Method: Tissue that had been kept at −80 °C was removed and placed on ice for 5 min. A total of 20 mg of tissue was diced and placed in a 1.5 mL microcentrifuge tube kept on ice. The tissue was lysed to extract the proteins using RIPA lysis buffer with a cocktail (IX) of phosphatase and protease inhibitors, followed by sonication for 30 min. After that, the mixture was centrifuged, and the supernatant was collected for protein estimation using the Bradford assay. Thereafter, immunoblotting was performed using SDS-PAGE for the separation and resolving of individual proteins by their molecular weights. The proteins were further transferred to nitrocellulose membranes, and blocking was performed in 3% powdered milk solution. Further, the membrane was washed using TBST buffer and was incubated in primary antibody (CST) for 3 h. After incubation, the membrane was washed in TBST and re-incubated for 1h in secondary antibody. The immune complex was detected using ChemiDoc^TM (BioRad) after washing the membrane with TBST [46].

[2] = test system: Twist, Zeb1, and Hif-1α gene expression; assay: qPCR analysis of Twist, Zeb1 and Hif-1α in tumor tissue from treated mice; format: in vivo, nude mice; settings: vs untreated mice
A549 xenograft tumor = assay: A549-cell-induced lung cancer xenograft model in nude mice; settings: for Average tumor weight: compared with the other groups; for Cytotoxic effect on the tumor (H&E staining): excised tumors; for % tumor growth inhibition: intraperitoneally once a week, 21 days
Method: The animal experiments were performed as per the guidelines of the Committee for the Purpose of Control and Supervision of Experiments on Animals (CPCSEA) with the approval of the Institutional Animal Ethics Committee (# IAEC/19/14). Four–five-week-old male athymic nude mice were procured from Vivo Bio Tech Ltd., Hyderabad, India. Animals were kept in an individually ventilated caging (IVC) system in a pathogen-free environment with standard conditions of temperature: 22 ± 1 °C, humidity: 50 ± 10%, and a 12 h light/dark cycle maintained in the National Toxicology Center (NTC) in the National Institute of Pharmaceutical Education and Research (NIPER), Mohali. Throughout the study, animals were fed with a standard rodent chow diet and water ad libitum.
Xenograft, the nude mice model, was developed by injecting A549 (1 × 10 ^6 cells, suspended in Matrigel™) subcutaneously into the right flank of each mouse. Tumor-bearing mice were randomly divided into four groups with seven animals per group after attaining an anticipated tumor volume of >80 mm^3. […] Treatment was given intraperitoneally once a week for a period of 21 days. Tumor volume and body weight were measured weekly during the study. Vernier caliper was used to measure the size of A549-cell-induced tumors weekly, starting from two weeks after inoculation.
Tumors were surgically removed from animals, sliced, and fixed in 10% v/v formal saline. For the histological study, the sliced tumors were processed and embedded in paraffin; sections of 5 µm were mounted on poly-L-lysine-coated glass slides. Sections were then stained with hematoxylin & eosin (H&E) to observe the structural alterations as described.

[3] = In vitro microsomal stability, human liver microsomes; format: in vitro ADME; settings: for microsomal CLint at 1 µM / half-life at 1 µM / remaining at 0.5 h, 1 µM: human, liver microsomes, 0.5 mg/mL microsomes; for microsomal CLint at 1 µM / half-life at 1 µM: pH 7.4, NADPH; for microsomal CLint at 1 µM: read-out: CLint HLM; for half-life at 1 µM: read-out: t½ HLM; for remaining at 0.5 h, 1 µM: NADPH 1 mM, pH 7.4, 37 °C, read-out: % Remaining after 30 min HLM
Method: (§1) Compounds were incubated at a final concentration of 1 µM with human (HLM) and mouse (MLM) at 0.5 mg/mL and NADPH (1 mM) in 100 mM phosphate buffer (pH 7.4) at 37 °C. The reactions were terminated at 0 and 30 min by the addition of cold acetonitrile containing propranolol (50 ng/mL) as an internal standard.

in vitro = settings: mouse, microsomes, pH 7.4
Method: as §1

EGFR = test system: EGFR; parameters: method as in PMID 25342981, PMID 27121209; settings: earlier report of the authors; read-out: IC50 (EGFR inhibition); cited from earlier work
[4] = test system: H1975 lung cancer cells with mutant EGFR (L858R/T790M); settings: gefitinib-resistant H1975, EGFR L858R/T790M; earlier report of the authors; read-out: IC50 (anti-proliferative, H1975 cells); cited from earlier work
[5] = In vitro microsomal stability, mouse liver microsomes
Method: as §1

[6] = mouse, liver microsomes, pH 7.4

Structure (SMILES): COc1cc2ncnc(Nc3ccc(F)c(Cl)c3)c2cc1OCCCN1CCOCC1 [gefitinib, reference compound]
PTEN protein level in tumors [1]: increased
Expression of the Hif-1α gene in tumors [2]: decreased
Kaplan–Meier survival (A549 xenograft tumor; 30 mg/kg, i.p.): improved the survival of the mice
Average tumor weight (A549 xenograft tumor; 30 mg/kg, i.p.): lower
Cytotoxic effect on the tumor (H&E staining) (A549 xenograft tumor): marked cytotoxic damage
Effect on tumor volume / size (A549 xenograft tumor; mouse, in vivo): suppression of tumor volume to some extent

microsomal CLint at 1 µM [3]: 3 µL/min/mg
half-life at 1 µM [3]: 7.97 h
remaining at 0.5 h, 1 µM [3]: 95.7%
half-life at 1 µM (in vitro): 2.17 h
microsomal CLint at 1 µM (in vitro): 11 µL/min/mg
remaining at 0.5 h, 1 µM (in vitro): 85.2%
Structure (SMILES): NC(=O)N1c2ccccc2C=Cc2ccccc21 [Carbamazepine, reference compound]

Structure (SMILES): COc1cc(C=Nc2c(C#N)nc3c(-c4cc(OC)c(OC)c(OC)c4)nc4ccccc4n23)cc(OC)c1OC [6b, 1-((3,4,5-Trimethoxybenzylidene)amino)-4-(3,4,5-trimethoxyphenyl)imidazo[1,2-a]quinoxaline-2-carbonitrile]
AKT, P-AKT and PI3K protein level in tumor masses ([1]; LD (10 mg/kg) and HD (30 mg/kg), vs untreated mice): decreased
PTEN protein level in tumors [1]: increased
Expression of EMT-regulating genes Twist and Zeb1 in tumors [2]: decreased
Expression of the Hif-1α gene in tumors [2]: decreased
Stability in human liver microsomes (in words) [3]: good stability
microsomal CLint at 1 µM [3]: 80 µL/min/mg
half-life at 1 µM [3]: 0.287 h
remaining at 0.5 h, 1 µM [3]: 29.9%
IC50 (EGFR): 211 nM
IC50 [4]: 3650 nM
Stability in mouse liver microsomes (in words) [5]: good stability
half-life at 1 µM [5, 6]: 0.602 h
microsomal CLint at 1 µM [5, 6]: 38 µL/min/mg
remaining at 0.5 h, 1 µM [5, 6]: 56.2%
% tumor growth inhibition (A549 xenograft tumor; 10 mg/kg (LD)): 16%
Kaplan–Meier survival (A549 xenograft tumor; 30 mg/kg, i.p.): improved the survival of the mice
Average tumor weight (A549 xenograft tumor; 30 mg/kg, i.p.): lower
Effect on tumor volume / size (A549 xenograft tumor; 30 mg/kg, i.p., vs tumor control): significantly decreased the size of the tumors
% tumor growth inhibition (A549 xenograft tumor; 30 mg/kg): 33%
Cytotoxic effect on the tumor (H&E staining) (A549 xenograft tumor): marked cytotoxic damage
